Among the data in patent US7973047B2, “Beta-Secretase modulators and methods of use” (Amgen Inc., priority 2010, dated 2011) are IC50 values, retold here.

Like-named read-outs stand apart in the source and are kept apart here. Bounds are passed on as bounds.

Experiment [1] has as its target BACE (Homo sapiens, UniProt P56817). The experiment can be described thus: In vitro enzymatic BACE FRET (fluorescence resonance energy transfer) assay. It counts as biochemical. Conditions: BACE enzyme 0.2 nM, FRET substrate 50 nM, acetate buffer pH 4.2. The method, then: In Vitro Enzymatic BACE FRET (Fluorescence Resonance Energy Transfer) Assay
Assay buffer is 0.05 M acetate, pH 4.2, 10% DMSO final, 100 uM genapol (which is a nonionic detergent, below it's Critical Micelle Concentration). Enzyme (0.2 nM) is pre-incubated for one hour with inhibitors added in 1 uL of DMSO. Then the assay is started by the addition of FRET substrate (50 nM) and incubated for one hour. The FRET assay is terminated with by addition of Tris buffer, which raises the pH to neutrality, and the fluorescence is determined. The FRET substrate is a peptide with commercially available fluorophore and quencher, on opposite sides of the BACE cleavage site. Proteolytic cleavage of the FRET substrate releases quenching of fluorescence (excitation 488 nm and emission […]).

Experiment [2] concerns Aβ40 in conditioned medium of cells stably expressing Amyloid Precursor Protein (APP). Kind of experiment: BACE cell-based assay: Aβ40 in conditioned medium by sandwich ELISA. Put shortly: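 Aβ40 in conditioned medium was read by time-resolved fluorescence sandwich ELISA (capture pAb40, detection biotinylated 6E10, 4° C incubations). Compounds were applied for 24 h to cells stably expressing APP, at 10 doses from 100 or 10 μM top, 0.1% DMSO. IC50 derived from percent of control.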
Background: ELISA stands for enzyme-linked immunosorbent assay.

Where [3] appears, read: cells stably expressing APP, 24 h incubation with compound, Aβ40 in supernatant by sandwich ELISA, read-out: IC50 values in the cell-based assay (inhibition or reduction of Aβ40).
[4] abbreviates: cell based assay data, Table 4, unit inferred, read-out: Cell Assay.
Where [5] appears, read: cell based assay data of Table 4, unit inferred, read-out: Cell Assay.

Chain of BACE (P56817 46-501, species assumed): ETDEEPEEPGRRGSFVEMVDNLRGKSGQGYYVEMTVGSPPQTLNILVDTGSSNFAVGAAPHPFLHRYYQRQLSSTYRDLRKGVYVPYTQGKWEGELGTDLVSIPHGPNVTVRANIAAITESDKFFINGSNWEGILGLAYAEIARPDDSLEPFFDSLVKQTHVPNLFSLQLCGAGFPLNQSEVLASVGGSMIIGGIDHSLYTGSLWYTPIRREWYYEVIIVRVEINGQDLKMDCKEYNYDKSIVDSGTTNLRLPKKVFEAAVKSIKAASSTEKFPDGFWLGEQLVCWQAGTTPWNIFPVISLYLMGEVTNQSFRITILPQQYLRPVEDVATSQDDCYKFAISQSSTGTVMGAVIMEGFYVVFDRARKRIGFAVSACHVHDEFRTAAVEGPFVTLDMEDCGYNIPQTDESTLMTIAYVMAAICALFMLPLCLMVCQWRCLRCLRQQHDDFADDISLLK

With `CC(=O)N[C@@H](Cc1ccccc1)[C@H](O)CN[C@H]1CC2(CCC2)Oc2ccc(N3CCOC[C@@H]3C)cc21` [Example 139], the IC50 in experiment [1] and in experiment [2] (setting [3]) was not above 5 µM in each case.
As for `COCC(=O)N[C@@H](Cc1cccc(Cl)c1)[C@H](O)CN[C@H]1CC(C)(C)Oc2ccc(Br)cc21` [Example 180], in experiment [1], the IC50 is not above 5 µM.
In the case of `CC(=O)N[C@@H](Cc1cccc(Cl)c1)[C@H](O)CN[C@H]1CC(C)(C)Oc2ccc(Br)cc21` [Example 182], in experiment [1], the IC50 is not above 5 µM.
In turn, `CC(=O)N[C@@H](Cc1ccccc1)[C@H](O)CN[C@H]1CC2(CCC2)Oc2ccc(N3CCCC3)cc21` [Example 264] came in with an IC50 in experiment [1] not above 5 µM.
As for `CC(=O)N[C@@H](Cc1ccccc1)[C@H](O)CN[C@H]1CC2(CCC2)Oc2ccc(N3C[C@@H]4C[C@H]3CO4)cc21` [Example 388], the IC50 in experiment [1] and in experiment [2] (setting [3]) was not above 5 µM throughout.
Turning to `CCc1cnc2c(c1)[C@@H](NC[C@@H](O)[C@H](Cc1cc(F)cc(F)c1)NC(C)=O)CC1(CCC1)O2` [compound 874], the IC50 in experiment [2] (setting [4]) was 0.0121 µM.
On the same count and under the same terms, then `CCc1cnc2c(c1)[C@@H](NC[C@@H](O)[C@H](Cc1cc(F)cc(F)c1)NC(=O)OC)CC1(CCC1)O2` [compound 875], with 0.325 µM; and `COC(=O)N[C@@H](Cc1cc(F)cc(F)c1)[C@H](O)CN[C@H]1CC2(CCC2)Oc2ncc(CC(C)(C)C)cc21` [compound 876], with 0.0108 µM.
The same measure, in the same setting: with `CCC(=O)N[C@@H](Cc1ccccc1)[C@H](O)CN[C@H]1CC2(CCC2)Oc2cnc(CC(C)(C)C)cc21` [compound 877] the figure was 0.0641 µM; with `CC(=O)N[C@@H](Cc1ccc(F)cc1)[C@H](O)CN[C@H]1CC2(CCC2)Oc2ncc(CC(C)(C)CO)cc21` [compound 878], 0.236 µM.
On the same count and under the same terms, with “N-((1S,2R)-3-(((2R,4S)-1′-acetyl-6-ethyl-3,4-dihydrospiro[chromene-2,3′-pyrrolidin]-4-yl)amino)-2-hydroxy-1-(phenylmethyl)propyl)acetamide N-((1S,2R)-3-(((2S,4S)-1′-acetyl-6-ethyl-3,4-dihydrospiro[chromene-2,3′-pyrrolidin]-4-yl)amino)-2-hydroxy-1-(phenylmethyl)propyl)acetamide [compound 812]” the figure was 1.95 µM.
On to “N-((1S,2R)-3-(((3S,4′S)-6′-(2,2-dimethylpropyl)-3′,4,4′,5-tetrahydrospiro[furan-3,2′-pyrano[2,3-b]pyridin]-4′-yl)amino)-1-((4-fluorophenyl)methyl)-2-hydroxypropyl)acetamide N-((1S,2R)-3-(((3R,4′S)-6′-(2,2-dimethylpropyl)-3′,4,4,5-tetrahydrospiro[furan-3,2′-pyrano[2,3-b]pyridin]-4′-yl)amino)-1-((4-fluorophenyl)methyl)-2-hydroxypropyl)acetamide [compound 658]”, for which the IC50 in experiment [2] (setting [5]) is 0.0202 µM.
Still for that read-out and setting: with “N-((1S,2R)-3-(((4R)-6-(2,2-dimethylpropyl)-2,2-dimethyl-1,2,3,4-tetrahydro-4-quinolinyl)amino)-2-hydroxy-1-(phenylmethyl)propyl)acetamide N-((1S,2R)-3-(((4S)-6-(2,2-dimethylpropyl)-2,2-dimethyl-1,2,3,4-tetrahydro-4-quinolinyl)amino)-2-hydroxy-1-(phenymethyl)propyl)acetamide [compound 689]” the figure was 0.0728 µM.
Still for that read-out and setting: with “N-((1S,2R)-3-(((4′S)-6′-(2,2-dimethylpropyl)-3′,4′-dihydrospiro[cyclopropane-1,2′-pyrano[2,3-b]pyridin]-4′-yl)amino)-1-((4-fluoro-3-methylphenyl)methyl)-2-hydroxypropyl)acetamide [compound 550]” the figure was 0.0203 µM.
As for “N-((1S,2R)-3-(((4′S)-6′-bromo-3′,4′-dihydrospiro[cyclobutane-1,2′-pyrano[2,3-b]pyridin]-4′-yl)amino)-1-((4-fluorophenyl)methyl)-2-hydroxypropyl)acetamide [compound 843]”, the IC50 in experiment [2] (setting [4]) was found to be 0.503 µM.
